According to article PMC11904033, “Lanatoside C activates the E3 ligase STUB1 to inhibit FOXP3 transcriptional activity and promote antitumor immunity” (EMBO Molecular Medicine, 2025):

How the values were obtained:
STUB1 = biological target: T1, STUB1 (Homo sapiens, UniProt Q9UNE7); assay: thermal shift in […] lysate (immunoblot); DARTS; assay type: biochemical; conditions: 10 uM Lac for 30 min in thermal shift; 30 uM Lac for 3 h in DARTS
T1 construct: full length (303 residues), HA-tagged, ectopically expressed in 293T cells, lysate
T1 sequence (Q9UNE7 1-303): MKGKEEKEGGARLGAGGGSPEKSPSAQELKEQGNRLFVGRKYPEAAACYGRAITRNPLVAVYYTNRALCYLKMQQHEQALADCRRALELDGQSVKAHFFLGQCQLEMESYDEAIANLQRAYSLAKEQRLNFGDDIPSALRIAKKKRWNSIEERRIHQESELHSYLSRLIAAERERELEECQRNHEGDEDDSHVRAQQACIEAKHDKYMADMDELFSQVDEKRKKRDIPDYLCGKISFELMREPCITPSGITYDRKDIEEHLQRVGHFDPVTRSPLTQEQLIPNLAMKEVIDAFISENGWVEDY

[1] = biological target: T2, STUB1 TPR domain (STUB1 1-130) (Homo sapiens, UniProt Q9UNE7); assay: isothermal titration calorimetry; assay type: binding; conditions: read-out: Ka (converted)
T2 construct: N-terminal TPR domain, residues 1-130; ITC: His-tagged from E. coli BL21 (pET-T7-STUB1 1-130-His); thermal shift and point mutants: 1-130-3xFlag6xHis expressed in 293T cells
T2 sequence (Q9UNE7 1-130): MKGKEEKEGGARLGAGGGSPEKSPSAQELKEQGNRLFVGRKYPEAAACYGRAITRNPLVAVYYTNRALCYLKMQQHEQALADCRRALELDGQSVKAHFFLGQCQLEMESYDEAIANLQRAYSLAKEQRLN

For CC(=O)O[C@H]1C[C@H](O[C@H]2[C@@H](O)C[C@H](O[C@H]3[C@@H](O)C[C@H](O[C@H]4CC[C@@]5(C)[C@H](CC[C@@H]6[C@@H]5C[C@@H](O)[C@]5(C)[C@@H](C7=CC(=O)OC7)CC[C@]65O)C4)O[C@@H]3C)O[C@@H]2C)O[C@H](C)[C@H]1O[C@@H]1O[C@H](CO)[C@@H](O)[C@H](O)[C@H]1O [Lanatoside C], the thermal shift (STUB1) was “Lac directly bound STUB1 as revealed in the thermal shift assay” and the Kd [1] was 7.69 µM.
